{
  "source": "patent US20060067947A1",
  "about": "“Immunotherapeutic for cancer” (Orient Cancer Therapy Co., Ltd., priority 2002, published 2006)",
  "key": {"[1]": {"tested_on": "prostatic cancer", "test": "Efficacy judgment on patients", "assay_type": "in vivo, human", "conditions": "Case 2; IRESSA 250 mg/day combined with NITC, after one month", "quoted_text": "(§3) Further, similarly to Example 1, an IL-12 inducer, shark cartilage (Seishin Enterprise Co., Ltd.), and a saccharide (NK, NKT activator) having an α1,3 structure were administered to the patients in each case according to the respective recommended prescriptions."}, "[2]": {"tested_on": "CD3+CD161+ NKT cell", "test": "NKT cell measurement by flow cytometry", "assay_type": "in vivo, human", "conditions": "Case 2; per date of visit", "method": "Measurement of NKR-P1-bearing NKT cell can be conducted by measuring cell surface antigens (CD3 and CD161) existing specifically on the NKT cell surface. More specifically, peripheral blood lymphocytes are examined with respect to cells with positive CD3 and positive CD161 (CD3+CD161+). That is, CD3 and CD161, NKT cell surface antigens, are measured by the two-color assay through flow cytometry using monoclonal antibody. Here, the term “NKT cell activation” refers to as the CD3+CD161+ NKT cell proportion in lymphocyte being 10% or more and preferably 16% or more. The term “NKT cell activating capability” denotes a capability of increasing the NKT cell proportion to 10% or more and preferably 16% or more, or a capability of further augmenting the NKT cell proportion from a proportion before administration of a certain substance.\n(§1) In the examples, using blood obtained from cancer patients, blood cells were discriminated as positive or negative of the cell surface antigens CD3, CD161 and CD8, with each cell proportion measured according to a conventional method by two-color assay using flow cytometry. At this time, for respective monoclonal antibodies to CD3, CD161 and CD8, those manufactured by Coulter or Becton Dickinson were used."}, "[3]": {"tested_on": "CD3−CD161+ NK cell", "test": "NK cell measurement by flow cytometry", "assay_type": "in vivo, human", "conditions": "Case 2; per date of visit", "source_text": "Likewise, the term “(CD3−CD161+)” refers to examination of cells with negative CD3 and positive CD161. This method is useful for NK cell measurement.\nas §1"}, "[4]": {"tested_on": "CD8+ perforin+ cells", "test": "CD8+ perforin production cell measurement", "assay_type": "in vivo, human", "conditions": "Case 2; per date of visit", "source_text": "Further, the term “CD8+” denotes examination of cells with positive CD8. This method is useful for CTL activation measurement.\nas §1\nTwo among CD3, CD161 and CD8, cell surface antigens, and perforin are measured with respect to peripheral blood lymphocyte according to a conventional method by three-color assay using flow cytometry. More specifically, a fixative is added to sampled blood, thus fixing cells. After addition of membrane permeating solution, anti-perforin antibody (manufactured by Pharmingen) is added for reaction. Further, PRE-Cy5 labeled second antibody (manufactured by DAKO) is added for reaction, followed by addition of anti-CD3-PE (Coulter 6604627) antibody and anti-CD161-FITC (B-D) antibody for reaction, after which measurement is conducted by flow cytometry. In the drawings and tables, the abbreviation “PER” is used."}, "[5]": {"tested_on": "Th1/Th2 helper T-cells (CD4)", "test": "Th1/Th2 cell ratio by flow cytometry", "assay_type": "in vivo, human", "conditions": "Case 2; per date of visit", "method": "The Th1/Th2 cell ratio was determined according to an ordinary method by helper T(Th)-cell line three-color analytical assay using flow cytometry.\nFirst, blood collected from cancer patients was treated for 4 hours at 37° C. with phorbol 12-myristate 13 acetate and ionomycin to stimulate cells in the blood to produce cytokines. Next, Breferdin A was added to stop the production reaction, cell surface marker CD4 was stained using an anti-CD4 antibody CD4-PC5 (Beckman Coulter), the cells were fixed and then subjected to hemolysis using FACS Lysing Solution (Nippon Becton Dickinson Co., Ltd.). Thereafter, cells were permeabilized with FACS Permeabilizing Solution (Nippon Becton Dickinson Co., Ltd.), and intracellular cytokines were stained using anti-IFNγ antibody/anti-IL-4 antibody (Fastimmune IFNγ FITC/IL-4 PE, from Nippon Becton Dickinson Co., Ltd.), and then measured and analysed with a flow cytometer (FACS Calibur, Becton Dickinson)."}, "[6]": {"tested_on": "TNFα", "test": "TNFα measurement by ELISA", "assay_type": "in vivo, human", "conditions": "Case 2; per date of visit", "method": "After washing, 10% fetal bovine serum (FBS)-added RPMI-1640 culture medium was added for preparation to provide a cell count of 1×10^6/ml. Phytohemagglutinin (30 μg/ml) (manufactured by Difco) was added to 200 μl of the cell suspension thus obtained, and then the mixture was cultured using a 96 well microplate under 5% CO2 at 37° C. for 24 hours."}, "[7]": {"tested_on": "IFNγ", "test": "IFNγ measurement by EIA", "assay_type": "in vivo, human", "conditions": "Case 2; per date of visit", "method": "(§2) After washing, 10% fetal bovine serum (FBS)-added RPMI-1640 culture medium is added for preparation to provide a cell count of 1×10^6. Phytohemagglutinin (manufactured by Difco) is added to 200 μl of the cell suspension thus obtained to provide a concentration of 20 μg/ml, and then the mixture is cultured using a 96 well microplate under 5% CO2 at 37° C. for 24 hours."}, "[8]": {"tested_on": "IL-12", "test": "IL-12 measurement by ELISA", "assay_type": "in vivo, human", "conditions": "Case 2; per date of visit", "method": "Phytohemagglutinin (manufactured by Difco) is added to 200 μl of the cell suspension thus obtained to provide a concentration of 20 μg/ml, and then the mixture is cultured using a 96 well microplate under 5% CO2 at 37° C. for 24 hours."}, "[9]": {"tested_on": "IL-10", "test": "IL-10 measurement", "assay_type": "in vivo, human", "conditions": "Case 2; per date of visit", "method": "as §2"}, "[10]": {"tested_on": "VEGF", "test": "Serum VEGF by ELISA", "assay_type": "in vivo, human", "conditions": "per date of visit", "method": "(Measurement of vascular endothelial growth factor/VEGF, basic fibroblast growth factor/bFGF and neovascularization inhibitor endostatin/endostatin)\nSerum concentrations were measured using commercially available kits for each enzyme linked immunosorbent assay (ELISA) ([…] Human VEGF, […] Human bFGF, […] Human Endostatin, from Cytimmune Sciences Inc.)."}, "[11]": {"tested_on": "tumor markers", "test": "Tumor markers in clinical testing", "assay_type": "in vivo, human", "source_text": "A commercially available product was used for each of the markers used in the clinical testing, and measurement values were shown in accordance with the respective recommended methods. All abbreviations shown are in accordance with common methods of presentation."}, "[12]": {"tested_on": "pulmonary adenocarcinoma", "conditions": "IRESSA alone, reported up to now; cited from earlier work"}, "[13]": {"tested_on": "Th1 cytokines (TNFα, IFNγ, IL-12)", "quoted_text": "In this case, a measurement kit purchased from R&D Systems was used. In practice, to each well of a 96-well microplate were added 50 μl of a measuring diluent, Assay Diluent RD1F, and 200 μl of a standard solution or samples prepared by the method for preparing the aforementioned samples for cytokine measurement, after which the samples were allowed to stand still at room temperature for 2 hours for reaction. Thereafter, 200 μl of horseradish peroxidase-labeled anti-IL12 antibody was added to the solution of each well, and the wells were then allowed to stand still at room temperature for 2 hours. After removing the reaction solution from each well and washing three times, 200 μl of chromophore solution was added to each well, the wells were allowed to stand still at room temperature for 20 minutes, and 50 μl of enzyme reaction stopping solution was then added to each well. The absorbance of each sample was measured at 450 nm with Emax (from Wako Pure Chemical Industries, Ltd.) employing 550 nm as a control. The amount of IL-12 is represented in pg/ml.\nMeasurement of IFNγ was conducted by enzyme immunoassay (EIA) using the IFNγ EASIA kit available from BioSource Europe SA. […]"}, "[14]": {"tested_on": "non-small-cell lung cancer, prostatic cancer and the like", "conditions": "cited from earlier work"}, "[15]": {"tested_on": "pulmonary adenocarcinoma", "test": "Efficacy judgment on patients (CR, PR, LNC, SNC, PD)", "quoted_text": "as §3"}, "[16]": {"conditions": "Case 1, IRESSA added to NITC, after one and a half months"}, "[17]": {"conditions": "Case 3, IRESSA with NITC, approximately 1 month"}, "[18]": {"conditions": "IRESSA alone, reported clinical results"}},
  "data": [
    {"compound": "COc1cc2ncnc(Nc3ccc(F)c(Cl)c3)c2cc1OCCCN1CCOCC1", "note": "[IRESSA]", "values": [
      {"measurement": "multiple bone metastasis", "setting": "[1]", "value": "complete remission"},
      {"measurement": "CD3+ CD161+ (16%)", "setting": "[2]", "value": 17.0, "unit": "%"},
      {"measurement": "CD3− CD161+ (11%)", "setting": "[3]", "value": 12.3, "unit": "%"},
      {"measurement": "CD8+ PER+ (14%)", "setting": "[4]", "value": 7.2, "unit": "%"},
      {"measurement": "Ratio of TH1/TH2 (CD4) (7 or more)", "setting": "[5]", "value": 2.7},
      {"measurement": "TNF α (1000 pg/ml)", "setting": "[6]", "value": 3420, "unit": "pg/mL"},
      {"measurement": "IFN γ (10 IU/ml)", "setting": "[7]", "value": 46.2, "unit": "IU/ml"},
      {"measurement": "IL-12 (7.8 pg/ml)", "setting": "[8]", "value": 72.4, "unit": "pg/mL"},
      {"measurement": "IL-10", "setting": "[9]", "value": 154, "unit": "pg/mL"},
      {"measurement": "VEGF", "setting": "[10]; Case 1", "value": 320, "unit": "pg/mL"},
      {"measurement": "VEGF", "setting": "[10]; Case 2", "value": 342, "unit": "pg/mL"},
      {"measurement": "various tumor markers", "setting": "[11]; [16]", "value": "normalized"},
      {"measurement": "CA15-3 (30 U/ml)", "setting": "[11]; Case 1, per date of visit", "value": 26, "unit": "U/ml"},
      {"measurement": "CA19-9 (37 U/ml)", "setting": "[11]; Case 1, per date of visit", "value": 32, "unit": "U/ml"},
      {"measurement": "CEA (5.0 ng/ml)", "setting": "[11]; Case 1, per date of visit", "value": 4.5, "unit": "ng/mL"},
      {"measurement": "NCC-ST-439 (7.0 U/ml)", "setting": "[11]; Case 1, per date of visit", "value": 6.7, "unit": "U/ml"},
      {"measurement": "SPAN-1 (30 U/ml)", "setting": "[11]; Case 1, per date of visit", "value": 16, "unit": "U/ml"},
      {"measurement": "Sielyl LEX-1 (38 U/ml)", "setting": "[11]; Case 1, per date of visit", "value": 36, "unit": "U/ml"},
      {"measurement": "PSA value", "setting": "[11]; Case 2, IRESSA combined with NITC, after one month, normalized", "value": 4.0, "unit": "ng/mL"},
      {"measurement": "1CTP (4.5 ng/ml)", "setting": "[11]; Case 2, per date of visit", "value": 2.5, "unit": "ng/mL"},
      {"measurement": "CA19-9 (37 U/ml)", "setting": "[11]; Case 2, per date of visit", "value": 27, "unit": "U/ml"},
      {"measurement": "Gamma-seminoprotein (4.0 ng/ml)", "setting": "[11]; Case 2, per date of visit", "value": 4.0, "unit": "ng/mL"},
      {"measurement": "PA (RIA) (4.0 ng/ml)", "setting": "[11]; Case 2, per date of visit", "value": 4.0, "unit": "ng/mL"},
      {"measurement": "PAP (EIA) (3.0 ng/ml)", "setting": "[11]; Case 2, per date of visit", "value": 1.4, "unit": "ng/mL"},
      {"measurement": "tumor marker CEA", "setting": "[11]; Case 3, IRESSA with NITC, approximately 1 month, from 256 ng/ml prior to the treatment", "value": 172, "unit": "ng/mL"},
      {"measurement": "SLX-1", "setting": "[11]; Case 3, IRESSA with NITC, approximately 1 month, from 480 U/ml prior to the treatment", "value": 140, "unit": "U/ml"},
      {"measurement": "proportion of effective cases", "setting": "[12]", "value": "around 20%"},
      {"measurement": "TNFα, IFNγ, and IL-12", "setting": "[13]; [16]", "value": "activated at levels exceeding standard values"},
      {"measurement": "induced production of TNFα, IFNγ, and IL-12", "setting": "[13]; [17]", "value": "increased"},
      {"measurement": "period to reach complete remission", "setting": "[14]; IRESSA alone, extremely rare cases", "value": "≥ 4", "unit": "months"},
      {"measurement": "CR (complete remission) found", "setting": "[14]; [18]", "value": "almost no CR"},
      {"measurement": "PR (partial remission) cases", "setting": "[14]; [18]", "value": "10 to 20", "unit": "%"},
      {"measurement": "cessation of proliferation (NC)", "setting": "[14]; treatment by IRESSA", "value": "about 50%"},
      {"measurement": "reduction (PR) in cancer cells", "setting": "[14]; treatment by IRESSA", "value": "about 20%"},
      {"measurement": "carcinomatous pleural fluid and primary lung cancer", "setting": "[15]; Case 1, IRESSA 250 mg per day added to NITC, after one and a half months", "value": "completely disappeared"},
      {"measurement": "bone metastasis to right hip joint, cervical vertebrae and thoracic vertebrae", "setting": "[15]; [16]", "value": "cured"},
      {"measurement": "miliary lung metastasis", "setting": "[15]; [17]", "value": "almost disappeared"},
      {"measurement": "multiple costal metastasis", "setting": "[15]; [17]", "value": "disappeared"},
      {"measurement": "primary focus in the right lung", "setting": "[15]; [17]", "value": "reduced by half"}
    ]}
  ]
}
